Laboratory results: US10723727B2, “Tubulysin analogs and methods for their preparation” (priority 2016, dated 2020)
Read-outs that look alike come from different tables or passages of the source.

Legend:
HT-29 cells = experiment: In vitro cell assay (MTS cell viability), HT-29 (target non-expressing); format: cell-based; settings: free compounds, 96 hours after treatment, read-out: HT29 IC50
Protocol: (§1) In Vitro Cell Assay Procedure
(§2) Target expressing (BT474 (breast cancer), N87 (gastric cancer), HCC1954 (breast cancer), MDA-MB-361-DYT2 (breast cancer)) or non-expressing (HT-29) cells were seeded in 96-well cell culture plates for 24 hours before treatment. Cells were treated with 3-fold serially diluted antibody-drug conjugates or free compounds (i. e. no antibody conjugated to the drug) in duplicate at 10 concentrations. Cell viability was determined by CellTiter 96® AQueous One Solution Cell Proliferation MTS Assay (Promega, Madison Wis.) 96 hours after treatment. Relative cell viability was determined as percentage of untreated control. IC50 values were calculated using a four parameter logistic model #203 with XLfit v4. 2 (IDBS, Guildford, Surry, UK).

[1] = tested on: N87 (gastric cancer) cells; experiment: In vitro cell assay (MTS cell viability), N87; format: cell-based; settings: free compounds, 96 hours after treatment
Protocol: as §1, §2

[2] = tested on: MDA-MB-361-DYT2 (breast cancer) cells; experiment: In vitro cell assay (MTS cell viability), MDA-MB-361-DYT2; format: cell-based; settings: free compounds, 96 hours after treatment
Protocol: as §1, §2

[3] = target: T1, tubulin/RB3-stathmin-like-domain (RB3-SLD-tdm) complex (Sus scrofa, UniProt P02550+P02554); experiment: Tubulin Peptide-Binding Site Competition Assay (fluorescence polarization); set-up: species or system Porcine; settings: FP competition with BODIPY-labeled vinca peptide probe; read after five hours at 22° C.; read-out: Tubulin Peptide-Binding Site Competition Assay IC50
T1 construct: purchased Cytoskeleton, Inc. T240; host or cells: RB3-SLD was made in house in E. coli
Protocol: Tubulin Peptide-Binding Site Competition Assay
Tubulin binding potency was measured for payloads or cysteine-capped linker-payloads using a fluorescence polarization (FP) competition assay. The binding of a BODIPY-labeled vinca peptide probe (# B31) to a tubulin/RB3-stathmin-like-domain (RB3-SLD-tdm) complex generates a high FP signal, which can be decreased when mixing with test compounds that compete with the FP probe. The order of addition for the reagents in the FP assay was designed to pre-mix the FP probe with various concentrations of the test compound before mixing them with the tubulin/RB3-SLD-dm complex. The final assay concentrations of the probe, tubulin and RB3-SLD-dm were 3, 6, and 100 nM, respectively. IC50 for each test compound is obtained by fitting the dose-dependent FP signal change using GraphPad Prism version 5 software (La Jolla, Calif.) while Ki is converted from the IC50 using the equations described previously (Nikolovska-Coleska et al., 2004). The FP signals were measured on an Infinite M1000 (Tecan, San Jose, Calif.) using ProxiPlate-384 F Plus, Black (Perkin-Elmer, Waltham, Mass., Cat #6008260) with 15 μL of solution per well. Sample dilution and mixing were done using a Beckman Biomek XF (Brea, Calif.). Porcine tubulin was purchased from Cytoskeleton, Inc. (Denver, Colo., Cat #T240) and RB3-SLD was expressed in E. coli. and purified on Q and then Superdex75 columns. The FP assay test for each compound was run in duplicates by mixing 6 μL of solution 1 containing 2.5× test compound (2.5× serial dilution from 7.8 μM maximum concentration, 11 total concentrations) and 7.5 nM of the FP probe in 80 mM PIPES, pH 7.0, 0.02% Tween 20, 2 mM MgCl2, 1 mM EGTA and 3% DMSO with 9 μL of solution 2 containing […] porcine tubulin and 167 nM of RB3-SLD-dm peptide ([…]-[…]) on ProxiPlate-384 micro-plates.

Row | SMILES | IC50 (HT-29 cells; Homo sapiens, HT-29, 96 h) [nM] | IC50 ([1]; 96 h) [nM] | IC50 ([2]; 96 h) [nM] | IC50 [3] [nM] | IC50 (HT-29 cells) [nM] | IC50 [1] [nM] | IC50 [2] [nM]
1 | CC[C@H](C)[C@H](NC(=O)[C@]1(C)CCCCN1C)C(=O)N(C)[C@H](C[C@@H](OC(C)=O)c1nc(C(=O)N[C@@H](Cc2ccc(N)cc2)C[C@H](C)C(=O)O)cs1)C(C)C [#B23, (2S,4R)-4-{[(2-{(1R,3R)-1-(acetyloxy)-3-[(N-{[(2S)-1,2-dimethylpiperidin-2-yl]carbonyl}-L-isoleucyl)(methyl)amino]-4-methylpentyl}-1,3-thiazol-4-yl)carbonyl]amino}-5-(4-aminophenyl)-2-methylpentanoic acid] | 2.33 | 2.71 | 2.02 |  |  |  | 
2 | CC[C@H](C)[C@H](NC(=O)[C@@]1(C)CCCN1C)C(=O)N(C)[C@H](C[C@@H](OC(C)=O)c1nc(C(=O)N[C@@H](Cc2ccccc2)C[C@H](C)C(=O)O)cs1)C(C)C [#B8, 1,2-dimethyl-D-prolyl-N-[(1R,3R)-1-(acetyloxy)-1-(4-{[(2R,4S)-4-carboxy-1-phenylpentan-2-yl]carbamoyl}-1,3-thiazol-2-yl)-4-methylpentan-3-yl]-N-methyl-L-isoleucinamide] |  | 0.104 | 0.063 | 1.8 |  |  | 
3 | CC[C@H](C)[C@H](NC(=O)[C@@]1(C)CCCN1C)C(=O)N(C)[C@H](C[C@@H](NC(C)=O)c1nc(C(=O)N[C@@H](Cc2ccccc2)C[C@H](C)C(=O)OC)cs1)C(C)C [#B20, 1,2-dimethyl-D-prolyl-N-[(1R,3R)-1-(acetylamino)-1-(4-{[(2R,4S)-5-methoxy-4-methyl-5-oxo-1-phenylpentan-2-yl]carbamoyl}-1,3-thiazol-2-yl)-4-methylpentan-3-yl]-N-methyl-L-isoleucinamide] | 3.37 | 6.11 | 2.58 |  |  |  | 
4 | CCOC(=O)[C@@H](C)C[C@H](Cc1ccccc1)NC(=O)c1csc([C@@H](C[C@H](C(C)C)N(C)C(=O)[C@@H](NC(=O)[C@@]2(C)CCCN2C)[C@@H](C)CC)OC(C)=O)n1 [#B7, 1,2-dimethyl-D-prolyl-N-[(1R,3R)-1-(acetyloxy)-1-(4-{[(2R,4S)-5-ethoxy-4-methyl-5-oxo-1-phenylpentan-2-yl]carbamoyl}-1,3-thiazol-2-yl)-4-methylpentan-3-yl]-N-methyl-L-isoleucinamide] |  | 9.53 | 5.15 | 11.9 |  |  | 
5 | CC[C@H](C)[C@H](NC(=O)[C@H]1CCCCN1C)C(=O)N(C)[C@H](C[C@@H](OC(C)=O)c1nc(C(=O)NN(Cc2ccccc2)CC(C)C(=O)O)cs1)C(C)C (stereo partly drawn) [#B4, 3-{2-[(2-{(1R,3R)-1-(acetyloxy)-4-methyl-3-[methyl(N-{[(2R)-1-methylpiperidin-2-yl]carbonyl}-L-isoleucyl)amino]pentyl}-1,3-thiazol-4-yl)carbonyl]-1-benzylhydrazinyl}-2-methylpropanoic Acid] |  | 3.38 | 2.39 | 4.6 |  |  | 
6 | CCNC(=O)O[C@H](C[C@H](C(C)C)N(C)C(=O)[C@@H](NC(=O)C1(C)CCCCN1C)[C@@H](C)CC)c1nc(C(=O)N[C@@H](Cc2ccc(N)cc2)C[C@H](C)C(=O)O)cs1 (stereo in doubt) [#B24, (2S,4R)-5-(4-aminophenyl)-4-{[(2-{(1R,3R)-3-[(N-{[(2R)-1,2-dimethylpiperidin-2-yl]carbonyl}-L-isoleucyl)(methyl)amino]-1-[(ethylcarbamoyl)oxy]-4-methylpentyl}-1,3-thiazol-4-yl)carbonyl]amino}-2-methylpentanoic acid] |  |  |  |  | 1.14 | 1.22 | 1.24
7 | CC[C@H](C)[C@H](NC(=O)[C@H]1CCCCN1C)C(=O)N(C)[C@H](C[C@@H](OC(C)=O)c1nc(C(=O)NC(Cc2ccccc2)c2nc(C(=O)O)cs2)cs1)C(C)C (stereo partly drawn) [#B37, 2-(1-{[(2-{(1R,3R)-1-(acetyloxy)-4-methyl-3-[methyl(N-{[(2R)-1-methylpiperidin-2-yl]carbonyl}-L-isoleucyl)amino]pentyl}-1,3-thiazol-4-yl)carbonyl]amino}-2-phenylethyl)-1,3-thiazole-4-carboxylic acid] |  | 228 | 240 | 1.3 |  |  | 
8 | CC[C@H](C)[C@H](NC(=O)[C@H]1CCCCN1C)C(=O)N(C)[C@H](C[C@@H](OC(C)=O)c1nc(C(=O)NCCn2ccccc2=O)cs1)C(C)C [#B41, (1R,3R)-4-methyl-3-[methyl(N-{[(2R)-1-methylpiperidin-2-yl]carbonyl}-L-isoleucyl)amino]-1-[4-{[2-(2-oxopyridin-1(2H)-yl)ethyl]carbamoyl}-1,3-thiazol-2-yl)pentyl acetate] |  | 2 | 1.44 | 4.41 |  |  | 
9 | CC[C@H](C)[C@H](NC(=O)[C@]1(C)CCCN1C)C(=O)N(C)[C@H](C[C@@H](OC(C)=O)c1nc(C(=O)N[C@@H](Cc2ccccc2)C[C@H](C)C(=O)OC)cs1)C(C)C [#B2, 1,2-dimethyl-L-prolyl-N-[(1R,3R)-1-(acetyloxy)-1-(4-{[(2R,4S)-5-methoxy-4-methyl-5-oxo-1-phenylpentan-2-yl]carbamoyl}-1,3-thiazol-2-yl)-4-methylpentan-3-yl]-N-methyl-L-isoleucinamide] |  | 11.8 | 5.54 | 92.2 |  |  | 
10 | CC[C@H](C)[C@H](NC(=O)[C@H]1CCCCN1C)C(=O)N(C)[C@H](C[C@@H](OC(C)=O)c1nc(C(=O)NCC2OCCc3ccccc32)cs1)C(C)C (stereo partly drawn) [#B38, (1R,3R)-1-{4-[(3,4-dihydro-1H-isochromen-1-ylmethyl)carbamoyl]-1,3-thiazol-2-yl}-4-methyl-3-[methyl(N-{[(2R)-1-methylpiperidin-2-yl]carbonyl}-L-isoleucyl)amino]pentyl acetate] |  | 3.06 | 0.925 | 4.8 |  |  | 
11 | CCOC(=O)c1ncoc1[C@H](Cc1ccccc1)NC(=O)c1csc([C@@H](C[C@H](C(C)C)N(C)C(=O)[C@@H](NC(=O)[C@H]2CCCCN2C)[C@@H](C)CC)OC(C)=O)n1 [#B39, ethyl 5-[(1S)-1-{[(2-{(1R,3R)-1-(acetyloxy)-4-methyl-3-[methyl(N-{[(2R)-1-methylpiperidin-2-yl]carbonyl}-L-isoleucyl)amino]pentyl}-1,3-thiazol-4-yl)carbonyl]amino}-2-phenylethyl]-1,3-oxazole-4-carboxylate] |  | 1.39 | 0.602 | 4.7 |  |  | 
12 | CC[C@H](C)[C@H](NC(=O)[C@H]1CCCCN1C)C(=O)N(C)[C@H](C[C@@H](OC(C)=O)c1nc(C(=O)N[C@H](CNS(C)(=O)=O)Cc2ccccc2)cs1)C(C)C [#B36, (1R,3R)-4-methyl-3-[methyl(N-{[(2R)-1-methylpiperidin-2-yl]carbonyl}-L-isoleucyl)amino]-1-[4-({(2S)-1-[(methylsulfonyl)amino]-3-phenylpropan-2-yl}carbamoyl)-1,3-thiazol-2-yl]pentyl acetate] |  | 0.459 | 0.255 | 1.7 |  |  | 
13 | CC[C@H](C)[C@H](NC(=O)[C@@]1(C)CCCN1)C(=O)N(C)[C@H](C[C@@H](OC(C)=O)c1nc(C(=O)N[C@@H](Cc2ccccc2)C[C@H](C)C(=O)OC)cs1)C(C)C [#B6, 2-methyl-D-prolyl-N-[(1R,3R)-1-(acetyloxy)-1-(4-{[(2R,4S)-5-methoxy-4-methyl-5-oxo-1-phenylpentan-2-yl]carbamoyl}-1,3-thiazol-2-yl)-4-methylpentan-3-yl]-N-methyl-L-isoleucinamide] |  | 29.3 | 18.6 | 119 |  |  | 
